Results taken from ChEMBL document CHEMBL4732125, “Structures/cytotoxicity/selectivity relationship of natural steroidal saponins against GSCs and primary mechanism of tribulosaponin A” (Eur J Med Chem, 2021).
Active and inactive are the calls of the source. No cut-off for these calls is given here.

Key:
[1] = test system: HUVEC; assay: Cytotoxicity against HUVEC assessed as reduction in cell viability after 72 hrs by MTS assay; type: cell-based, Homo sapiens; conditions: for IC50: Homo sapiens, HUVEC
[2] = test system: GSC-18; assay: (§1) Cytotoxicity against human GSC18 cells assessed as reduction in cell viability after 72 hrs by MTS assay; type: functional, cell-based
[3] = test system: HEK-293T; assay: Cytotoxicity against human 293T cells assessed as reduction in cell viability after 72 hrs by MTS assay; type: cell-based; conditions: for IC50: Homo sapiens, HEK-293T
[4] = test system: GSC-3; assay: (§2) Cytotoxicity against human GSC3 cells assessed as reduction in cell viability after 72 hrs by MTS assay; type: functional, cell-based
[5] = as §1; type: functional, cell-based, GSC-18; conditions: GSC18, 72 h
[6] = as §2; type: functional, cell-based; conditions: GSC-3, 72 h
[7] = test system: T98G; assay: Cytotoxicity against human T98G assessed as reduction in cell viability after 72 hrs by MTS assay; type: cell-based; conditions: human, t98g, time 72 hrs
[8] = test system: U-87 MG; assay: Cytotoxicity against human U-87 MG cells assessed as reduction in cell viability after 72 hrs by MTS assay; type: cell-based, U-87MG ATCC; conditions: human, u-87mg atcc, time 72 hrs
[9] = test system: GSC-3; assay: Inhibition of colony formation in human GSC-3 cells assessed as tumor spheres damage at 15 uM after 2 weeks by crystal violet staining based assay; type: functional, cell-based
[10] = test system: GSC-18; assay: Inhibition of colony formation in human GSC-18 cells assessed as tumor spheres damage at 15 uM after 2 weeks by crystal violet staining based assay; type: functional, cell-based
[11] = test system: GSC-18; assay: Inhibition of colony formation in human GSC-18 cells assessed as decrease in number of tumor spheres at 15 uM after 2 weeks by crystal violet staining based assay; type: functional, cell-based
[12] = test system: GSC-3; assay: Inhibition of colony formation in human GSC-3 cells assessed as decrease in number of tumor spheres at 15 uM after 2 weeks by crystal violet staining based assay; type: functional, cell-based

Row | SMILES | Activity [2] | Activity [4] | IC50 [5] | IC50 [6] | also measured
1 | C[C@@H]1CC[C@@]2(OC1)O[C@H]1C[C@H]3[C@@H]4CC=C5C[C@@H](O[C@@H]6O[C@H](CO)[C@@H](O[C@@H]7O[C@@H](C)[C@H](O[C@@H]8O[C@@H](C)[C@H](O)[C@@H](O)[C@H]8O)[C@@H](O)[C@H]7O)[C@H](O)[C@H]6O[C@@H]6O[C@@H](C)[C@H](O)[C@@H](O)[C@H]6O)CC[C@]5(C)[C@H]4CC[C@]3(C)[C@H]1[C@@H]2C [PENNOGENIN RAHAMNOSYL CHACOTRIOSIDE] | inactive | inactive |  |  | IC50 [1]: 1.83 µM; IC50 [3]: 1.83 µM
2 | CO[C@]1(CC[C@@H](C)CO[C@@H]2O[C@H](CO)[C@@H](O)[C@H](O)[C@H]2O)O[C@H]2C[C@H]3[C@@H]4CC=C5C[C@@H](O[C@@H]6O[C@H](CO)[C@@H](O[C@@H]7O[C@@H](C)[C@H](O)[C@@H](O)[C@H]7O)[C@H](O)[C@H]6O[C@@H]6O[C@@H](C)[C@H](O)[C@@H](O)[C@H]6O)CC[C@]5(C)[C@H]4CC[C@]3(C)[C@H]2[C@@H]1C [METHYLPROTODIOSCIN] |  |  | 1.82 µM | 1.82 µM | 
3 | C[C@@H]1CC[C@@]2(OC1)O[C@H]1C[C@H]3[C@@H]4CC=C5C[C@@H](O[C@@H]6O[C@H](CO)[C@@H](O[C@@H]7O[C@@H](C)[C@H](O)[C@@H](O)[C@H]7O)[C@H](O)[C@H]6O[C@@H]6O[C@@H](C)[C@H](O)[C@@H](O)[C@H]6O)CC[C@]5(C)[C@H]4CC[C@]3(C)[C@H]1[C@@H]2C | Active | Active |  |  | 
4 | C[C@@H]1CC[C@@]2(OC1)O[C@H]1C[C@H]3[C@@H]4CC=C5C[C@@H](O[C@@H]6O[C@H](CO)[C@@H](O)[C@H](O)[C@H]6O[C@@H]6O[C@@H](C)[C@H](O)[C@@H](O)[C@H]6O)CC[C@]5(C)[C@H]4CC[C@]3(C)[C@H]1[C@@H]2C [OPHIOPOGONIN C] |  |  | 0.78 µM | 0.78 µM | Activity ([1]; human, huvec, time 72 hrs): Non-Toxic; Activity [7]: Non-Toxic; Activity [8]: Non-Toxic; Activity ([3]; human, hek-293t, time 72 hrs): Non-Toxic
5 | C[C@@H]1O[C@@H](O[C@H]2[C@H](O[C@H]3CC[C@@]4(C)C(=CC[C@H]5[C@@H]6C[C@@H]7O[C@@]8(OC[C@H](CO)CC8O[C@H]8O[C@@H](CO)[C@H](O)[C@@H](O)[C@@H]8O)[C@@H](C)[C@@H]7[C@@]6(C)CC[C@@H]54)C3)O[C@H](CO)[C@@H](O[C@@H]3O[C@@H](C)[C@H](O)[C@@H](O)[C@H]3O)[C@@H]2O)[C@H](O)[C@H](O)[C@H]1O (some centres undefined) | inactive | inactive |  |  | 
6 | Cn1nnc2c(C(N)=O)ncn2c1=O |  |  |  |  | Activity [9]: Active; Activity [10]: Active; inhibition [11]: Active; inhibition [12]: Active
7 | C[C@H](CC[C@@]1(O)O[C@H]2C[C@H]3[C@@H]4CC=C5C[C@@H](O[C@@H]6O[C@H](CO)[C@@H](O[C@@H]7O[C@@H](C)[C@H](O)[C@@H](O)[C@H]7O)[C@H](O)[C@H]6O[C@@H]6O[C@@H](C)[C@H](O)[C@@H](O)[C@H]6O)CC[C@]5(C)[C@H]4CC[C@]3(C)[C@H]2[C@@H]1C)CO[C@@H]1O[C@H](CO)[C@@H](O)[C@H](O)[C@H]1O |  |  | 1.09 µM | 1.03 µM | IC50 [1]: 3.22 µM; IC50 [3]: 3.22 µM
